Data on two molecules can be found in article PMC7688903 (Frontiers in Microbiology, 2020).

One series deals with human erythrocytes. Put plainly: Hemolytic activity assay. It is filed as cell-based. The note with it: human RBC in PB, 37°C, 1 h, OD420, total lysis control 0.1% SDS, three technical replicates. In a few lines: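 Washed RBCs from a healthy volunteer were incubated with peptides at 32–128 μM for 1 h at 37°C in PB. Hemoglobin release into the supernatant was read as OD420 against total lysis with 0.1% SDS, in three technical replicates.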

Another series concerns human plasma proteases. Put plainly: in vitro.
For series [1], the system named is carbapenem-resistant A. baumannii (CRAB) SIPI-025. The class given is cell-based, Acinetobacter baumannii. As to conditions: carbapenem-resistant (CRAB) SIPI-025, 20 h. In a few lines:
(§1)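 Inocula were set to 0.5 McFarland and diluted to ~5 × 10^5 CFU/mL (bacteria, MH broth) or 0.5 × 10^3 to 2.5 × 10^3 CFU/mL (yeast, RPMI 1640). Peptide twofold dilutions were added, plates incubated 20 h at 37°C or 48 h at 35°C, then scored by eye.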

A further series concerns A. baumannii ATCC 19606. It is filed as cell-based, Acinetobacter baumannii. The note with it: ATCC 19606, 20 h. The method in brief:
as §1

For a further series, the system named is C. albicans ATCC 10231. Put plainly: microbe, parasite or virus in culture. As to conditions: ATCC 10231, 48 h. The class given is cell-based, Candida albicans. In a few lines: as §1
Another series deals with E. coli ATCC 25922. The class given is cell-based, Escherichia coli. The note with it: ATCC 25922, 20 h. The method in brief:
as §1

The subject of series [2] is proteases secreted by S. aureus ATCC 25923. Put plainly: in vitro. In a few lines: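 Cell-free culture supernatants (overnight, 37°C; MH broth for bacteria, 2% tryptone/2% dextrose for yeast) were centrifuged, adjusted to pH 8.0 and 0.22 μm filtered. Peptides at 0.5 mg/mL were incubated in supernatant 24 h at 37°C; remaining intact peptide measured by RP-HPLC, with peptide-free supernatant as negative control.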

The next series deals with P. aeruginosa ATCC 27853. It is filed as cell-based, Pseudomonas aeruginosa. As to conditions: ATCC 27853, 20 h. In a few lines:
as §1

Series [3] has as its system carbapenem-resistant P. aeruginosa (CRPA) SIPI-012. It is filed as cell-based, Pseudomonas aeruginosa. As to conditions: carbapenem-resistant (CRPA) SIPI-012, 20 h. In a few lines:
as §1

The subject of another series is RAW 264.7 cells. Kind of series: Cell viability assay (MTT). The class given is cell-based, mouse. As to conditions: 1–128 μM peptide in DMEM with 4% FBS, 42 h, 595 nm, triplicate. In a few lines:
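RAW 264.7 cells (1 × 10^4/well, DMEM + 10% FBS) grown overnight to 80% confluency, then exposed to peptides at 1–128 μM in DMEM with 4% FBS for 42 h at 37 °C. MTT read at 595 nm; viability relative to medium-only controls, triplicate, IC50 as 50% loss of viability.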

The structures appear in SMILES notation. In brackets after ≈: the same amount, converted by molar mass. Where a SMILES comes first, the peptide text is derived from it. [ ]: non-standard residue; d: D form. 2Thi = N[C@@H](Cc1cccs1)C(=O)O; Aib = CC(C)(N)C(=O)O

Procedure for human plasma proteases: The peptides were mixed with plasma from healthy volunteers to a final concentration of 0.1 mg/mL and incubated at 37°C. Aliquots (20 or 40 μL) were removed after 0, 2, 4, 6, 8, 12, 24, and 36 h, mixed with 0.05% TFA to a final concentration of 0.01 mg/mL, and incubated on ice for 10 min. After centrifugation (12,000 × g, 5 min), the supernatant was stored at −20°C. The samples were analyzed as described in section “Hydrophobicity” and quantified as described in section “Stability Toward Tryptic Degradation.” All stability tests were performed at least in triplicate. The identities of the metabolites after 12 h of degradation by plasma proteases were determined by LC-MS on a Waters Acquity UPLC-QDa system.

`CC(C)C[C@H](NC(=O)[C@H](Cc1ccc(O)cc1)NC(=O)[C@H](CCCCN)NC(=O)[C@H](CC(C)C)NC(=O)[C@H](CC(C)C)NC(=O)[C@H](CCCCN)NC(=O)[C@H](CCCCN)NC(=O)[C@H](Cc1ccccc1)NC(=O)[C@H](CC(C)C)NC(=O)[C@H](CCCNC(=N)N)NC(=O)C(C)(C)N)C(=O)N[C@@H](CCCNC(=N)N)C(=O)N[C@@H](CCCCN)C(=O)N[C@@H](Cc1cccs1)C(N)=O` [UP09] (H-[Aib]RLFKKLLKYLRK[2Thi]-NH2; N-terminus assumed): the figures for the “Hemolysis rate (%)” value in the series with human erythrocytes (64 μM) and with human erythrocytes (128 μM) were 55.99 ± 3.75 % and 95.99 ± 2.10 %, respectively. The same molecule showed a fraction remaining at 12 h, 0.1 mg/mL in the series on human plasma proteases greater than 50%. For the same molecule, the fraction remaining at 24 h, 0.1 mg/mL in the series with human plasma proteases was greater than 30%. Also, the MIC in [1] worked out at 2 µg/mL (≈ 1.08 µM); with A. baumannii ATCC 19606 it was 2 µg/mL (≈ 1.08 µM); with C. albicans ATCC 10231, 4 µg/mL (≈ 2.17 µM); in the series on E. coli ATCC 25922 it was 2 µg/mL (≈ 1.08 µM); in the series on P. aeruginosa ATCC 27853 it was 2 µg/mL (≈ 1.08 µM); in series [3], 4 µg/mL (≈ 2.17 µM). For the same molecule, in series [2] (S. aureus ATCC 25923 culture supernatant (MH broth), pH 8.0, 0.22 μm filtered, peptide 0.5 mg/mL, 37°C, 24 h, RP-HPLC), the “Percent of remained peptide amount after incubation (%)” value was determined as 36.92 ± 3.97 %. Moreover, 26.2 ± 1.8 µM corresponded to half-maximal inhibition in the series with RAW 264.7 cells (IC50).

As to `CC(C)C[C@H](NC(=O)[C@H](CC(C)C)NC(=O)[C@@H](CCCCN)NC(=O)[C@@H](CCCCN)NC(=O)[C@H](Cc1ccccc1)NC(=O)[C@H](CC(C)C)NC(=O)[C@@H](CCCNC(=N)N)NC(=O)[C@H](N)CCCCN)C(=O)N[C@H](CCCCN)C(=O)N[C@@H](Cc1ccc(O)cc1)C(=O)N[C@@H](CC(C)C)C(=O)N[C@H](CCCNC(=N)N)C(=O)N[C@H](CCCCN)C(=O)N[C@@H](Cc1ccccc1)C(N)=O` [DP06] (H-[dK][dR]LF[dK][dK]LL[dK]YL[dR][dK]F-NH2), the entries for the “Hemolysis rate (%)” value in the series on human erythrocytes (64 μM) and in the series on human erythrocytes (128 μM) were 37.14 ± 2.73% and 59.99 ± 2.41%, respectively. In the series on human plasma proteases, this molecule gave an amount remaining at 8 h, 0.1 mg/mL greater than 90%. Also, the share remaining at 24 h, 0.1 mg/mL in the series with human plasma proteases was greater than 60%. Further, the MIC in series [1] was found to be 2 µg/mL (≈ 1.06 µM); in the series with A. baumannii ATCC 19606, 1 µg/mL (≈ 0.532 µM); with C. albicans ATCC 10231, 2 µg/mL (≈ 1.06 µM); with E. coli ATCC 25922, 1 µg/mL (≈ 0.532 µM); against P. aeruginosa ATCC 27853, 1 µg/mL (≈ 0.532 µM); in series [3], 8 µg/mL (≈ 4.25 µM). This molecule registered an amount remaining at 24 h, 0.5 mg/mL in series [2] (Staphylococcus aureus, S. aureus ATCC 25923 culture supernatant, pH 8) of 86.4 ± 4.81%. Further, in the series on RAW 264.7 cells, the IC50 was found to be 48.8 ± 6.97 µM.

As usually defined, the share remaining is what is left of the initial amount, in per cent. By IC50 is commonly meant the concentration that gives 50% inhibition. Read a low IC50 as greater potency in that assay.
